Laboratory results as given in US8765741B2, “5,6-dihydro-1H-pyridin-2-one compounds” (Anadys Pharmaceuticals, Inc., priority 2007, dated 2014).

target: NS5B polymerase (Hepatitis C virus genotype 1b, UniProt P26663); experiment: biochemical; conditions: NS5B polymerase inhibition; 20 nM enzyme, 75 min at 28° C.
Procedure: Compounds were tested for HCV polymerase inhibition. Assays were performed in a 96-well streptavidin-coated FlashPlate using 20 nM enzyme, 0.5 μCi of [α-^33P]GTP, 0.6 μM GTP, and 250 nM 5′biotinylated oligo (rG13)/poly rC in 20 mM Tris-HCl, pH 7.5, 5 mM MgCl2, 5 mM dithiothreitol, 0.1 g/L bovine serum albumin, and 100 U/mL RNAse inhibitor. The reaction was stopped by aspiration after 75 min at 28° C. and the plate was washed several times. After washing and drying the plate, incorporated radioactivity was counted using a Microbeta scintillation counter. IC50 values were calculated relative to the uninhibited control and inhibition data were fitted to a 4-parameter IC50 equation.

Sequence of NS5B polymerase (P26663 2420-3010): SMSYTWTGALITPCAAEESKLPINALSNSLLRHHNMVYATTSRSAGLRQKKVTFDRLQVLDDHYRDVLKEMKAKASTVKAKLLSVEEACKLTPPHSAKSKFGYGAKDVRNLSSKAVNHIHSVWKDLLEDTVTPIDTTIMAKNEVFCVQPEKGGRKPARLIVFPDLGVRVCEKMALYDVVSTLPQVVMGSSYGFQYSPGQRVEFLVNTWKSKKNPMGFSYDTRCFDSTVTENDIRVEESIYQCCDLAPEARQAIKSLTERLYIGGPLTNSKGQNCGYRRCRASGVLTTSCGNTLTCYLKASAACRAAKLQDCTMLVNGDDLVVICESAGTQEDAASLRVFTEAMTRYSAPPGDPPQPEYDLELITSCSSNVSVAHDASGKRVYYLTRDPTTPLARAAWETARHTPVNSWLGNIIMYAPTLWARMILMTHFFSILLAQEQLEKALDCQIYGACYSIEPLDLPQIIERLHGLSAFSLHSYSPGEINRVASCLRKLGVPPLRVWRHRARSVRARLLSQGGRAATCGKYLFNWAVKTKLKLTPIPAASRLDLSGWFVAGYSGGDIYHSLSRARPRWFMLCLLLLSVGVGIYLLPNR

Row | Structure (SMILES) | IC50
1 | CS(=O)(=O)Nc1ccc2c(c1)S(=O)(=O)N=C(C1=C(O)C3C4CCC(C4)C3N(Cc3ccc(F)cc3)C1=O)N2 (racemic) [Example 2, (rac-di-endo)-N-{3-[3-(4-Fluoro-benzyl)-6-hydroxy-4-oxo-3-aza-tricyclo[6.2.1.0^2,7]undec-5-en-5-yl]-1,1-dioxo-1,4-dihydro-1λ^6-benzo[1,2,4]thiadiazin-7-yl}-methanesulfonamide] | < 0.02 µM

same assay, conditions: NS5B polymerase inhibition; 20 nM enzyme, 75 min at 28° C.; read-out: IC50

Row | Structure (SMILES) | IC50
2 | CS(=O)(=O)Nc1ccc2c(c1)S(=O)(=O)N=C(C1=C(O)[C@@H]3[C@H]4CC[C@H](C4)[C@@H]3NC1=O)N2 [Example 27, (1R,2S,7R,8S)-N-[3-(6-Hydroxy-4-oxo-3-aza-tricyclo[6.2.1.0^2,7]undec-5-en-5-yl)-1,1-dioxo-1,4-dihydro-1λ^6-benzo[1,2,4]thiadiazin-7-yl]-methanesulfonamide] | 1 to 100 µM
3 | O=C1C(C2=NS(=O)(=O)c3cc(N4CCCS4(=O)=O)ccc3N2)=C(O)[C@@H]2[C@H]3CC[C@H](C3)[C@@H]2N1Cc1ccc(F)cc1 [Example 26, (1R,2S,7R,8S)-5-[7-(1,1-Dioxo-1λ^6-isothiazolidin-2-yl)-1,1-dioxo-1,4-dihydro-1λ^6-benzo[1,2,4]thiadiazin-3-yl]-3-(4-fluoro-benzyl)-6-hydroxy-3-aza-tricyclo[6.2.1.0^2,7]undec-5-en-4-one] | 0.1 to 1 µM
4 | O=C1C(C2=NS(=O)(=O)c3cccnc3N2)=C(O)[C@@H]2[C@H]3CC[C@H](C3)[C@@H]2N1Cc1ccc(F)cc1 [Example 63, (1R,2S,7R,8S)-5-(1,1-Dioxo-1,4-dihydro-1λ^6-pyrido[2,3-e][1,2,4]thiadiazin-3-yl)-3-(4-fluoro-benzyl)-6-hydroxy-3-aza-tricyclo[6.2.1.0^2,7]undec-5-en-4-one] | 0.1 to 1 µM
5 | O=C1C(C2=NS(=O)(=O)c3cc(I)ccc3N2)=C(O)[C@@H]2[C@H]3CC[C@H](C3)[C@@H]2N1Cc1ccc(F)cc1 [Example 19, (1R,2S,7R,8S)-3-(4-Fluoro-benzyl)-6-hydroxy-5-(7-iodo-1,1-dioxo-1,4-dihydro-1λ^6-benzo[1,2,4]thiadiazin-3-yl)-3-aza-tricyclo[6.2.1.0^2,7]undec-5-en-4-one] | 1 to 100 µM
6 | CS(=O)(=O)Nc1ccc2c(c1)S(=O)(=O)N=C(C1=C(O)C3C([C@@H]4CC[C@H]3C4)N(C3CCCC3)C1=O)N2 (stereo partly shown) [Example 44] | 0.1 to 1 µM
7 | CC(C)CCN1C(=O)C(C2=NS(=O)(=O)c3cc(NS(=O)(=O)C4CC4)ccc3N2)=C(O)C2C3CCC(O3)C21 (racemic) [Example 42, (rac-di-exo)-Cyclopropanesulfonic acid{3-[6-hydroxy-3-(3-methyl-butyl)-4-oxo-11-oxa-3-aza-tricyclo[6.2.1.0^2,7]undec-5-en-5-yl]-1,1-dioxo-1,4-dihydro-1λ^6-benzo[1,2,4]thiadiazin-7-yl}-amide] | 0.02 to 0.1 µM
8 | O=C1C(C2=NS(=O)(=O)c3ccccc3N2)=C(O)[C@@H]2[C@H]3CC[C@H](C3)[C@@H]2N1Cc1ccc(F)cc1 [Example 28, (1R,2S,7R,8S)-5-(1,1-Dioxo-1,4-dihydro-1λ^6-benzo[1,2,4]thiadiazin-3-yl)-3-(4-fluoro-benzyl)-6-hydroxy-3-aza-tricyclo[6.2.1.0^2,7]undec-5-en-4-one] | 0.1 to 1 µM
9 | O=C1C(C2=NS(=O)(=O)c3cc(C4=CCCS4(=O)=O)ccc3N2)=C(O)[C@@H]2[C@H]3CC[C@H](C3)[C@@H]2N1Cc1ccc(F)cc1 [Example 20, (1R,2S,7R,8S)-5-[7-(1,1-Dioxo-4,5-dihydro-1H-1λ^6-thiophen-2-yl)-1,1-dioxo-1,4-dihydro-1λ^6-benzo[1,2,4]thiadiazin-3-yl]-3-(4-fluoro-benzyl)-6-hydroxy-3-aza-tricyclo[6.2.1.0^2,7]undec-5-en-4-one] | 0.1 to 1 µM
10 | CC(C)CCN1C(=O)C(C2=NS(=O)(=O)c3cc(NS(=O)(=O)C4CC4)ccc3N2)=C(O)C2C1[C@@H]1CC[C@H]2C1 (stereo partly drawn) [Example 40, Cyclopropanesulfonic acid{3-(1R,2S,7R,8S)-[6-hydroxy-3-(3-methyl-butyl)-4-oxo-3-aza-tricyclo[6.2.1.0^2,7]undec-5-en-5-yl]-1,1-dioxo-1,4-dihydro-1λ^6-benzo[1,2,4]thiadiazin-7-yl}-amide] | 0.02 to 0.1 µM
11 | Cc1cc(CN2C(=O)C(C3=NS(=O)(=O)c4cc(N(C)S(C)(=O)=O)ccc4N3)=C(O)[C@@H]3[C@H]4CC[C@H](C4)[C@@H]32)ccc1F [Example 18, N-{3-[(1R,2S,7R,8S)-3-(4-Fluoro-3-methyl-benzyl)-6-hydroxy-4-oxo-3-aza-tricyclo[6.2.1.0^2,7]undec-5-en-5-yl]-1,1-dioxo-1,4-dihydro-1λ^6-benzo[1,2,4]thiadiazin-7-yl}-N-methyl-methanesulfonamide] | 0.02 to 0.1 µM
12 | O=C1C(C2=NS(=O)(=O)c3cc(Br)cnc3N2)=C(O)C2C([C@@H]3CC[C@H]2C3)N1Cc1ccc(F)cc1 (stereo partly shown) [Example 61] | 1 to 100 µM
13 | CC(C)CCN1C(=O)C(C2=NS(=O)(=O)c3cc(I)ccc3N2)=C(O)[C@@H]2[C@H]3CC[C@H](C3)[C@@H]21 [Example 34, (1R,2S,7R,8S)-6-Hydroxy-5-(7-iodo-1,1-dioxo-1,4-dihydro-1λ^6-benzo[1,2,4]thiadiazin-3-yl)-3-(3-methyl-butyl)-3-aza-tricyclo[6.2.1.0^2,7]undec-5-en-4-one] | 1 to 100 µM
14 | CC(C)CCN1C(=O)C(C2=NS(=O)(=O)c3cc(NS(C)(=O)=O)ccc3N2)=C(O)C2C3CCC(O3)C21 (racemic) [Example 25, (rac-di-exo)-N-{3-[6-Hydroxy-3-(3-methyl-butyl)-4-oxo-11-oxa-3-aza-tricyclo[6.2.1.0^2,7]undec-5-en-5-yl]-1,1-dioxo-1,4-dihydro-1λ^6-benzo[1,2,4]thiadiazin-7-yl}-methanesulfonamide] | < 0.02 µM

Next, values leading:

Row | IC50 | Structure (SMILES)
15 | 0.02 to 0.1 µM | CC(C)(C)CCN1C(=O)C(C2=CS(=O)(=O)c3cc(NS(C)(=O)=O)ccc3N2)=C(O)C2C3C=CC(C3)C21 (racemic) [Example 36, (rac-di-exo)-N-{3-[3-(3,3-Dimethyl-butyl)-6-hydroxy-4-oxo-3-aza-tricyclo[6.2.1.0^2,7]undeca-5,9-dien-5-yl]-1,1-dioxo-1,4-dihydro-1λ^6-benzo[1,4]thiazin-7-yl}-methanesulfonamide]
16 | < 0.02 µM | CS(=O)(=O)Nc1ccc2c(c1)S(=O)(=O)N=C(C1=C(O)C3C4CCC(O4)C3N(Cc3ccc(F)cc3)C1=O)N2 (racemic) [Example 8, (rac-di-exo)-N-{3-[3-(4-Fluoro-benzyl)-6-hydroxy-4-oxo-11-oxa-3-aza-tricyclo[6.2.1.0^2,7]undec-5-en-5-yl]-1,1-dioxo-1,4-dihydro-1λ^6-benzo[1,2,4]thiadiazin-7-yl}-methanesulfonamide]
17 | 0.02 to 0.1 µM | CC(C)(C)CCN1C(=O)C(C2=NS(=O)(=O)c3cc(NS(C)(=O)=O)ccc3N2)=C(O)C2C3C=CC(C3)C21 (racemic) [Example 32, (rac-di-exo)-N-{3-[3-(3,3-Dimethyl-butyl)-6-hydroxy-4-oxo-3-aza-tricyclo[6.2.1.0^2,7]undeca-5,9-dien-5-yl]-1,1-dioxo-1,4-dihydro-1λ^6-benzo[1,2,4]thiadiazin-7-yl}-methanesulfonamide]
18 | 0.02 to 0.1 µM | O=C1C(C2=NS(=O)(=O)c3cc(NS(=O)(=O)C4CC4)ccc3N2)=C(O)C2C([C@@H]3CC[C@H]2C3)N1Cc1ccc(F)cc1 (stereo partly drawn) [Example 35, Cyclopropane sulfonic acid{3-[(1R,2S,7R,8S)-3-(4-fluoro-benzyl)-6-hydroxy-4-oxo-3-aza-tricyclo[6.2.1.0^2,7]undec-5-en-5-yl]-1,1-dioxo-1,4-dihydro-1λ^6-benzo[1,2,4]thiadiazin-7-yl}-amide]
19 | < 0.02 µM | CS(=O)(=O)Nc1ccc2c(c1)S(=O)(=O)N=C(C1=C(O)C3C(C4CC(O)[C@H]3C4)N(Cc3ccc(F)cc3)C1=O)N2 (stereo in doubt) [Example 67, N-{3-[(1R,2S,7R,8S)-3-(4-Fluoro-benzyl)-6,9-dihydroxy-4-oxo-3-aza-tricyclo[6.2.1.0^2,7]undec-5-en-5-yl]-1,1-dioxo-1,4-dihydro-1λ^6-benzo[1,2,4]thiadiazin-7-yl}-methanesulfonamide]
20 | 0.02 to 0.1 µM | CS(=O)(=O)Nc1ccc2c(c1)S(=O)(=O)N=C(C1=C(O)[C@H]3[C@H]4CC[C@H]([C@@H]5C[C@@H]54)[C@H]3N(Cc3ccc(F)cc3)C1=O)N2 (racemic) [Example 51, rac-N-{3-[(1R,2R,7S,8S,9S,11R)-3-[(4-Fluorophenyl)methyl]-6-hydroxy-4-oxo-3-azatetracyclo[6.3.2.0^2,7.0^9,11]tridec-5-en-5-yl]-1,1-dioxo-4H-1λ^6,2,4-benzothiadiazin-7-yl}methanesulfonamide]
21 | < 0.02 µM | CS(=O)(=O)Nc1ccc2c(c1)S(=O)(=O)C=C(C1=C(O)C3C4C=CC(C4)C3N(Cc3ccc(F)cc3)C1=O)N2 (racemic) [Example 37, (rac-di-exo)-N-{3-[3-(4-Fluoro-benzyl)-6-hydroxy-4-oxo-3-aza-tricyclo[6.2.1.0^2,7]undeca-5,9-dien-5-yl]-1,1-dioxo-1,4-dihydro-1λ^6-benzo[1,4]thiazin-7-yl}-methanesulfonamide]
22 | < 0.02 µM | Cc1cc(CN2C(=O)C(C3=NS(=O)(=O)c4cc(NS(C)(=O)=O)ccc4N3)=C(O)[C@H]3[C@@H]2[C@@H]2CC[C@H]3O2)ccc1F [Example 11, N-{3-[(1S,2R,7S,8R)-3-(4-Fluoro-3-methyl-benzyl)-6-hydroxy-4-oxo-11-oxa-3-aza-tricyclo[6.2.1.0^2,7]undec-5-en-5-yl]-1,1-dioxo-1,4-dihydro-1λ^6-benzo[1,2,4]thiadiazin-7-yl}-methanesulfonamide]
